Results from patent publication EP0049203A1, “Benzoxazolinones substituted in the 6-position by an amino-alcohol or amino-ketone chain, their preparation and their therapeutic use” (RIOM LABORATOIRES- C.E.R.M. (Société Anonyme), priority 1980, dated 1982).

How the values were obtained:
[1] = test system: récepteurs β1 de l'oreillette gauche de cobaye; assay: Antagonism of the positive inotropic effect of isoprenaline on electrically stimulated isolated left atrium; conditions: for cardiosélectivité: β1 versus β2, in words
Text: (§1) L'activité pharmacologique des composés de l'invention a été révélée par recherche d'une interférence avec les récepteurs adrénergiques β1, β2 et α in vitro, conformément aux protocoles expérimentaux ci-après.
(§2) Récepteurs adrénergiques β1 : on recherche l'antagonisme de l'effet inotrope positif de l'isoprénaline sur les récepteurs β1 de l'oreillette gauche de cobaye stimulée électriquement.
(§3) Les résultats sont exprimés dans le tableau I par les paramètres usuels de pharmacologie moléculaire, selon les critères utilisés par Van Rossum [Arch. Int.

[2] = test system: souris; assay: Thermal stimulus analgesia test (Eddy and Leimbach); assay type: in vivo; conditions: Mus musculus, po; test de stimulus thermique; par voie orale chez la souris; read-out: DE 50 (dose qui augmente de 50 % le temps de réaction)
Method: Dans le test de stimulus thermique [selon EDDY N.B., LEIMBACH D.J. Pharmacol. Exp. Ther., 107, 385-393, (1953)J la DE 50 de ce composé ― qui représente la dose de produit qui augmente de 50 % le temps de réaction des animaux traités par rapport à celui du groupe des animaux de contrôle - est de 4,4 mg/kg par voie orale chez la souris.

[3] = test system: souris; assay: Chemical stimulus analgesia test (Siegmund; abdominal cramps); assay type: in vivo; conditions: Mus musculus, po; test de stimulus chimique; par voie orale chez la souris; read-out: DE 50 (dose qui inhibe de 50 % le nombre de crampes abdominales)
Method: Dans le test de stimulus chimique [SIEGMUND E., CADMUS R. GO LU - Proc. Soc. Exp. Biol. Med. 95, 729-731, (1957)] la DE 50 de ce composé - qui représente la dose qui inhibe de 50 % le nombre de crampes abdominales par rapport à celui du groupe des animaux de contrôle - est de 9 mg/kg par voie orale chez la souris.

[4] = molecular target: T1, récepteurs β1 de l'oreillette gauche de cobaye (Cavia porcellus, UniProt H0W3H1); assay: Antagonism of the positive inotropic effect of isoprenaline on electrically stimulated isolated left atrium; conditions: β1, guinea-pig left atrium; for Kb: antagonism of isoprenaline, read-out: pA2 (converted)
T1 construct: l'oreillette gauche de cobaye stimulée électriquement; from tissue; host or cells: guinea pig left atrium, electrically stimulated
T1 sequence (H0W3H1 1-470): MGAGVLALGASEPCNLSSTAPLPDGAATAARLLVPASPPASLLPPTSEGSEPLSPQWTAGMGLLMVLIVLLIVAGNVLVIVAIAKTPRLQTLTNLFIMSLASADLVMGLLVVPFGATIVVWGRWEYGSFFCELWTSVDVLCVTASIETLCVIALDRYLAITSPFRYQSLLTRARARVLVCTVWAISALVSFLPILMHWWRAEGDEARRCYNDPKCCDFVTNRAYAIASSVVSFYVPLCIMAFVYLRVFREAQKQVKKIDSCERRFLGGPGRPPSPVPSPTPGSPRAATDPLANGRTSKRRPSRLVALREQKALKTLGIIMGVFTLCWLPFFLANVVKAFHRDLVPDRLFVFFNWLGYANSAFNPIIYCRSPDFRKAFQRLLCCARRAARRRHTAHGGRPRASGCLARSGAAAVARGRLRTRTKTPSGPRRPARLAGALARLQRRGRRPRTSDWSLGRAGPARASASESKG
Text: as §1, §2, §3

[5] = molecular target: T2, récepteurs adrénergiques β2 du muscle trachéal de cobaye (Cavia porcellus, UniProt Q8K4Z4); assay: Antagonism of the bronchodilator effects of isoprenaline on isolated tracheal muscle; conditions: guinea-pig tracheal muscle; for INTERFERENCE AVEC LES RECEPTEURS ADRENERGIQUES β2: result in words; for Kb: β2, antagonism of isoprenaline, read-out: pA2 (converted)
T2 construct: du muscle trachéal de cobaye; from tissue; host or cells: guinea pig tracheal muscle
T2 sequence (Q8K4Z4 whole entry): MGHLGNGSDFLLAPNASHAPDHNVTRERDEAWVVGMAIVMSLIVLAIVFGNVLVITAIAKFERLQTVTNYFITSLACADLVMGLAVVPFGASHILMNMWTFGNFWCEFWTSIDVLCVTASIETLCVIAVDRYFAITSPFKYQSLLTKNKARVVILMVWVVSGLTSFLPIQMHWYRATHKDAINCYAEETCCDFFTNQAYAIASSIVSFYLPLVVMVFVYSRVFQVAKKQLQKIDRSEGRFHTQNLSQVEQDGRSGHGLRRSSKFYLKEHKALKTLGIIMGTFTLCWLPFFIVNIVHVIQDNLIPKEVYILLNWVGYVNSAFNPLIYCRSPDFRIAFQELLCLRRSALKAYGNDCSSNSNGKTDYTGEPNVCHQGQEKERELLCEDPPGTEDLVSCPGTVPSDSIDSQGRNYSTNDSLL
Text: as §1
Récepteurs adrénergiques β2 : on recherche l'antagonisme des effets bronchodilatateurs de l'isoprénaline sur les récepteurs p2 du muscle trachéal de cobaye.
as §3

[6] = test system: Récepteurs adrénergiques α; assay: Interference with noradrenaline-induced contraction (cumulative doses) of isolated vas deferens; conditions: rat vas deferens; for pA2: noradrenaline contraction; for INTERFERENCE AVEC LES RECEPTEURS ADRENERGIQUES α: result in words
Text: as §1
Récepteurs adrénergiques α : on étudie l'interférence des composés de l'invention sur la contraction du vas déferens isolé du rat, provoquée par des doses cumulatives de noradrénaline.
as §3

Cn1c(=O)oc2cc(C(O)CN3CCN(c4cccc(C(F)(F)F)c4)CC3)ccc21 (stereo not drawn) [compound 31, 2-[4-(3-trifluorométhyl)phénylpipérazinyl] 1-(3-méthyl 2-benzoxazolinon-6-yl) éthanol] was tested, and the “activité sur les récepteurs adrénergiques” value ([1]; adrenergic receptors in general (β1, β2, α), in words) was “n'a pas une activité de même niveau que les autres composés de l'invention”, the ED50 [2] was 4.4 mg/kg and the ED50 [3] was 9 mg/kg.

COc1ccccc1N1CCN(CC(=O)c2ccc3c(c2)oc(=O)n3C)CC1 [compound 9, 2 [4-(2-méthoxyphényl)pipérazinyl] 1-(3-méthyl 2-benzoxazolinon-6-yl) éthanone] was tested, and the Kb [4] was 3980 nM and the “pD'2” value [4] was 3,8.

COc1ccccc1N1CCN(CC(O)c2ccc3c(c2)oc(=O)n3C)CC1 (stereo not drawn) [compound 22] was tested, and the Kb [4] was 2820 nM, the “INTERFERENCE AVEC LES RECEPTEURS ADRENERGIQUES β2” value [5] was “Agoniste partiel” and the pA2 ([6]; α) was “pA2 = 5,7 ± 0,25”.

With C[C@@H]([C@H](O)c1ccc2c(c1)oc(=O)n2C)N1CCC(Cc2ccccc2)CC1 (relative stereo) [compound 29] the Kb [4] was 2950 nM, the “pD'2” value [4] was 4,50 ± 0,21 and the “INTERFERENCE AVEC LES RECEPTEURS ADRENERGIQUES β2” value [5] was “Agoniste partiel”.

CC(C)(C)NCC(O)c1ccc2[nH]c(=O)oc2c1 (stereo not drawn) [compound 19] was tested, and the Kb [4] was 224 nM, the Kb [5] was 1480 nM and the “INTERFERENCE AVEC LES RECEPTEURS ADRENERGIQUES α” value [6] was “Inactif”.

With O=c1[nH]c2ccc(C(O)CN3CCN(c4ccc(F)cc4)CC3)cc2o1 (stereo not drawn) [compound 30] the Kb [4] was 3980 nM, the cardiosélectivité [1] was “importante, voire totale” and the “INTERFERENCE AVEC LES RECEPTEURS ADRENERGIQUES β2” value [5] was “Inactif”.

Cn1c(=O)oc2cc(C(=O)CN3CCC(Cc4ccccc4)CC3)ccc21 [compound 13, 2-(4-benzyl-pipéridinyl) 1-(3-méthyl 2-benzoxazolinon-6-yl) éthanone] was tested, and the Kb [4] was 5010 nM.

In the case of C[C@@H]([C@H](O)c1ccc2c(c1)oc(=O)n2C)N1CCN(c2ccc(F)cc2)CC1 (relative stereo) [compound 28], the Kb [4] is reported as 6170 nM, the “pD'2” value [4] is reported as 4 and the cardiosélectivité [1] is reported as “importante, voire totale”. The “INTERFERENCE AVEC LES RECEPTEURS ADRENERGIQUES β2” value [5] was “Inactif” and the “INTERFERENCE AVEC LES RECEPTEURS ADRENERGIQUES α” value [6] was “Inactif”.

With CC(C(=O)c1ccc2c(c1)oc(=O)n2C)N1CCN(c2ccc(F)cc2)CC1 (stereo not drawn) [compound 10] the Kb [4] was 1260 nM, the “pD'2” value [4] was 4,59 ± 0,61 and the “INTERFERENCE AVEC LES RECEPTEURS ADRENERGIQUES β2” value [5] was “Agoniste partiel”. For the same molecule, the pA2 ([6]; α) was “pA2 = 5,3 ± 0,12”.

For COc1ccccc1N1CCN([C@@H](C)[C@H](O)c2ccc3c(c2)oc(=O)n3C)CC1 (relative stereo) [compound 27, Erythro 2-[4-(2-méthoxyphényl)pipéraziny] 1-(3-méthyl-2-benzoxazolinon-6-yl) propanol], the Kb [4] was 2240 nM, the Kb [5] was 20900 nM and the pA2 ([6]; α) was 6,14 ± 0,31. The “pD'2” value ([6]; α) was 4,73 ± 0,38.

In the case of Cn1c(=O)oc2cc(C(O)CN3CCC(Cc4ccccc4)CC3)ccc21 (stereo not drawn) [compound 25, 2-(4-benzylpipéradinyl) 1-(3-méthyl 2-benzoxazolinon-6-yl) éthanol], the Kb [4] is reported as 2000 nM, the “pD'2” value [4] is reported as 4,2 and the cardiosélectivité [1] is reported as “importante, voire totale”. For the same molecule, the “INTERFERENCE AVEC LES RECEPTEURS ADRENERGIQUES β2” value [5] was “Inactif”.

In the case of CC(C)NCC(O)c1ccc2[nH]c(=O)oc2c1 (stereo not drawn) [compound 18, 2-isopropylamino 1-(2-benzoxazolinon-6-yl) éthanol], the Kb [4] is reported as 34.7 nM, the cardiosélectivité [1] is reported as “de faible intensité” and the Kb [5] is reported as 776 nM. The pA2 ([6]; α) was “pA2 = 6,03 ± 0,43”.

With NCC(O)c1ccc2[nH]c(=O)oc2c1 (stereo not drawn) [compound 16] the Kb [4] was 6310 nM, the “INTERFERENCE AVEC LES RECEPTEURS ADRENERGIQUES β2” value [5] was “Inactif” and the pA2 ([6]; α) was “pA2 = 4,73 ± 0,52”.
